As usually defined, the MIC is the lowest concentration that inhibits growth of the organism. Broadly, the IC50 is the concentration that gives 50% inhibition. A higher IC50 goes with weaker potency.

In brackets after ≈: the same amount, converted by molar mass. Read-outs that look alike come from different tables or passages of the source.

The text below walks through data of patent US6399625B1, “1-oxorapamycins” (Wyeth, priority 2000, dated 2002).

Type in all cases: cell-based
Assay [1] concerns SH-SY5Y cells. Put plainly: Neuroregeneration activity, neurite outgrowth. To be noted: aphidicolin pretreated, mean ± SEM. The source says: The neuroregeneration activity for the compounds of this invention was confirmed in a standard pharmacological test procedure by evaluating 1-oxo-rapamycin (Compound I) as representative compound of this invention, against SH-SY5Y cells in vitro [Gold et al., Exp Neurol 147: 269-278, 1997]. Briefly, SH-SY5Y cells were placed in 6-well plate treated with aphidicolin for 5 days followed by the test compounds using 6-well plates. For controls, wells were untreated, or treated with nerve growth factor (NGF) alone. Test wells were treated with NGF plus compound I or rapamycin. Cells were photographed at 168 hours. Analysis of neuritic lengths was performed on photographic prints using a Houston Instrument HI-PAD digitizing tablet connected to an IBM XT computer with appropriate software (Bioquant IV, R&M Biometrics, Nashville, Tenn.). Mean values for axonal areas were compared using by ANOVA (STATVIEW, Abacus Concepts, Inc., Berkeley, Calif. The following table summarizes the results that were obtained.

Assay [2] deals with A. fumigatus GC 3092. Put plainly: Antifungal activity, microtiter broth dilution MIC. The method, then:
(§1) The antifungal activity for the 1-oxorapamycins of this invention was confirmed in a standard pharmacological test procedure which measured the ability of the compound being evaluated to inhibit fungal growth. 1-Oxorapamycin (Compound I), 1-oxorapamycin 42-ester with 3-hydroxy-2-(hydroxymethyl)-2-methylpropionic acid (Compound II), and 42-O-(2-hydroxy)ethyl 1-oxorapamycin (Compound III) were evaluated as representative compounds of this invention. The procedure used and results obtained are briefly described below. A 96 U-bottom microtiter plate was filled (50 μl/well) with RPMI 1640. The compounds to be evaluated were placed in appropriate wells, and serial diluted in successive wells to provide 11 dilutions. The concentrations ranged from 64 through 0.06 μg/ml. An adjusted inoculum of fungi (50 μl) was added to each well and the plates were incubated at 35° C. for 24-48 hours. […] Nystatin and rapamycin were used for the purpose of comparison.
In general terms: Broth dilution looks for growth in wells or tubes with falling amounts of substance.

The test system of assay [3] is A. niger GC 3091. In words: Antifungal activity, microtiter broth dilution MIC. To be noted: 24-48 hours. As for the experimental part:
as §1

The subject of assay [4] is A. niger GC 6591. Put plainly: Antifungal activity, microtiter broth dilution MIC. To be noted: 24-48 hours. As for the experimental part: as §1
The subject of assay [5] is C. albicans GC 3064. In words: Antifungal activity, microtiter broth dilution MIC. To be noted: 24-48 hours. The method, then:
as §1

Assay [6] concerns C. albicans GC 3065. In words: Antifungal activity, microtiter broth dilution MIC. To be noted: 24-48 hours. As for the experimental part: as §1
For assay [7], the system named is C. albicans GC 3066. Put plainly: Antifungal activity, microtiter broth dilution MIC. To be noted: 24-48 hours. The method, then: as §1
Assay [8] concerns C. krussii GC 3067. In words: Antifungal activity, microtiter broth dilution MIC. To be noted: RPMI 1640, 35° C., 24-48 hours. As for the experimental part:
as §1

The subject of assay [9] is C. lusitaniae GC 3068. In words: Antifungal activity, microtiter broth dilution MIC. To be noted: RPMI 1640, 35° C., 24-48 hours; for MIC: Clavispora lusitaniae. The method, then: as §1
Assay [10] concerns C. parapsilosis GC 3074. In words: Antifungal activity, microtiter broth dilution MIC. To be noted: 24-48 hours. As for the experimental part:
as §1

Assay [11] relates to C. parapsilosis GC 3075. Put plainly: Antifungal activity, microtiter broth dilution MIC. To be noted: 24-48 hours. The method, then: as §1
The test system of assay [12] is C. parapsilosis GC 3076. In words: Antifungal activity, microtiter broth dilution MIC. To be noted: 24-48 hours. As for the experimental part: as §1
Assay [13] has as its system C. pseudotropicalis 3070. Put plainly: Antifungal activity, microtiter broth dilution MIC. To be noted: RPMI 1640, 35° C., 24-48 hours. As for the experimental part:
as §1

Assay [14] concerns C. tropicalis GC 3080. In words: Antifungal activity, microtiter broth dilution MIC. To be noted: 24-48 hours. The method, then: as §1
In assay [15] the test system is C. tropicalis GC 3081. Put plainly: Antifungal activity, microtiter broth dilution MIC. To be noted: 24-48 hours. The method, then: as §1
Assay [16] has as its system 3T3 (ovarian) tumor cell line. In words: Antineoplastic activity, tumor cell growth inhibition (sulforhodamine B). To be noted: Mus musculus, NIH3T3, 3T3 cells, 48 hours. The source says:
(§2) Antineoplastic activity for the compounds of this invention was confirmed by evaluating the antineoplastic activity of representative compounds of this invention (Compounds I-III) against six tumor cell lines in vitro. Briefly, tumor cells from six cell lines were placed in wells of a 96 well microtiter plate. The following tumor cell lines were used: 3T3 (ovarian), 3T3/H2N (ovarian—resistant to cis-platin), A431 (vulva epidermoid origin), SW620 (colon), SKBR3 (breast), and MDA-435 (breast). The tumors cells were grown in the presence of serial dilutions of the compound to be evaluated for 48 hours, and cell growth determined using a colorimetric procedure (sulforhrodamine B). The inhibition of growth was calculated compared to the number of cells at the time of test compound addition. Results are expressed as an IC50 (μg/ml); N/A indicates the compound was not evaluated against that cell line. The following IC50s was listed on Table 2.

Assay [17] deals with 3T3/H2N (ovarian—resistant to cis-platin) tumor cell line. The description is as above. To be noted: 3T3/H2N cells, 48 hours.
Description: as §2

Assay [18] deals with A431 (vulva epidermoid origin) tumor cell line. The assay is described as above. To be noted: Homo sapiens, A-431, A431 cells, 48 hours.
Description: as §2

The subject of assay [19] is MDA-435 (breast) tumor cell line. Described as above. To be noted: MDA435 cells, 48 hours.
Description: as §2

Assay [20] deals with SKBR3 (breast) tumor cell line. The description is as above. To be noted: Homo sapiens, SK-BR-3, SKBR3 cells, 48 hours.
Description: as §2

The test system of assay [21] is SW620 (colon) tumor cell line. The description is as above. To be noted: Homo sapiens, SW-620, SW620 cells, 48 hours.
Description: as §2

Consider “NGF: nerve growth factor (NGF), control treatment alone and co-treatment in neurite test”, for which the “Mean Neurite Lengths after 168 h, Neurite Length” value in assay [1] (NGF alone (control)) is on record as 196.5 ± 7.7 μm.
In the case of `CO[C@H]1C[C@@H]2CC[C@@H](C)[C@@](O)(O2)C(=O)C(=O)N2CCCC[C@H]2C(=O)O[C@H]([C@H](C)C[C@@H]2CC[C@@H](O)[C@H](OC)C2)CC(=O)[C@H](C)/C=C(\C)[C@@H](O)[C@@H](OC)C(=O)[C@H](C)C[C@H](C)/C=C/C=C/C=C/1C` [Rapamycin], the MIC was above 128 µg/mL in [2] (Aspergillus fumigatus, GC3092, read-out: ANTIFUNGAL ACTIVITY (MIC)); above 128 µg/mL in assay [3] (Aspergillus niger, GC3091, RPMI 1640, 35° C.); above 128 µg/mL in assay [4] (Aspergillus niger, GC6591, RPMI 1640, 35° C.); below 0.12 µg/mL in assay [5] (Candida albicans, GC3064, RPMI 1640, 35° C.); 0.5 µg/mL (≈ 0.547 µM) in assay [6] (Candida albicans, GC3065, RPMI 1640, 35° C.); below 0.12 µg/mL in assay [7] (Candida albicans, GC3066, RPMI 1640, 35° C.). Moreover, the MIC was 4 µg/mL (≈ 4.38 µM) in assay [8]; below 0.12 µg/mL in assay [9] (GC3068, C. lusitaniae GC 3068, first listing (r26), read-out: ANTIFUNGAL ACTIVITY (MIC)); 0.5 µg/mL (≈ 0.547 µM) in [9] (GC3068, read-out: ANTIFUNGAL ACTIVITY (MIC), C. lusitaniae GC 3068, second listing (r28)); 0.25 µg/mL (≈ 0.273 µM) in assay [10] (Lodderomyces parapsilosis, GC3074, RPMI 1640, 35° C.); below 0.12 µg/mL in assay [11] (Lodderomyces parapsilosis, GC3075, RPMI 1640, 35° C.); below 0.12 µg/mL in assay [12] (Lodderomyces parapsilosis, GC3076, RPMI 1640, 35° C.). For the same compound, the MIC in assay [13] (Kluyveromyces marxianus) was below 0.12 µg/mL; in assay [14] (Candida tropicalis, GC3080, RPMI 1640, 35° C.) it was 0.25 µg/mL (≈ 0.273 µM); in assay [15] (Candida tropicalis, GC3081, RPMI 1640, 35° C.) it was 0.25 µg/mL (≈ 0.273 µM). For the same compound, the IC50 in [16] was 0.48 µg/mL (≈ 0.525 µM); in [17], 1.7 µg/mL (≈ 1.86 µM); in assay [18], 1.9 µg/mL (≈ 2.08 µM); in [19], 1.3 µg/mL (≈ 1.42 µM); in [20] it was 0.87 µg/mL (≈ 0.952 µM); in [21], 2.3 µg/mL (≈ 2.52 µM). Further, in assay [1] (NGF plus test compound), the “Mean Neurite Lengths after 168 h, Neurite Length” value is reported as 261.4 ± 13.1 μm.
As for `C[C@@H]1[C@H](O)[C@@H](C)/C=C/C=C/CC/C=C/C=C/C=C/C=C/C(O[C@H]2O[C@H](C)[C@@H](O)[C@H](N)[C@@H]2O)CC2O[C@](O)(CC(O)C(O)CCC(O)CC(O)CC(O)CC(=O)O[C@H]1C)CC(O)C2C(=O)O` (some centres unmarked) [Nystatin, reference compound], the “ANTIFUNGAL ACTIVITY (MIC)” value in assay [2] (A. fumigatus GC 3092, RPMI 1640, 35° C., 24-48 hours) was 1 µg/mL; in [3] (RPMI 1640, 35° C.), 2 µg/mL; in assay [4] (RPMI 1640, 35° C.), 2 µg/mL; in assay [5] (RPMI 1640, 35° C.) it was 1 µg/mL; in assay [6] (RPMI 1640, 35° C.), 1 µg/mL; in [7] (RPMI 1640, 35° C.), 1 µg/mL. Further, the “ANTIFUNGAL ACTIVITY (MIC)” value in [8] was 1 µg/mL; in [9] (C. lusitaniae GC 3068, first listing (r26)), 0.50 µg/mL; in assay [9] (C. lusitaniae GC 3068, second listing (r28)), 1 µg/mL; in [10] (RPMI 1640, 35° C.), 1 µg/mL; in assay [11] (RPMI 1640, 35° C.), 0.50 µg/mL; in [12] (RPMI 1640, 35° C.) it was 0.50 µg/mL. Also, the “ANTIFUNGAL ACTIVITY (MIC)” value was found to be 0.50 µg/mL in assay [13]; 0.25 µg/mL in [14] (RPMI 1640, 35° C.); 1 µg/mL in assay [15] (RPMI 1640, 35° C.).
